Laboratory results as given in patent US20240277695A1, “FOXO INHIBITORS FOR USE IN THE TREATMENT OF DISEASES CAUSED BY ABNORMAL PROCESSING OF TDP-43 AND/OR FUS PROTEINS” (Administración General de la Comunidad Autónoma de Euskadi, priority 2020, published 2024).

Key:
[1] = tested on: Caz or Tbph-silenced flies; assay: Longevity assay in flies with muscle-conditioned silencing of Caz or Tbph; format: in vivo, Drosophila melanogaster; details: 30 μM, particularly iCaz and iTbph^attp40
From the text: (§1) FIG. 7. Foxo inhibition improves muscle function and lifespan in Drosophila flies with muscle-conditioned deficiency of TDP-43 or FUS. […] F, Caz or Tbph-silenced flies have reduced survival times, as indicated by Kaplan-Meier curves (left panel) and median lifespan (right panel) (n=100 flies per group). […] This effect was particularly noticeable in iCaz and iTbph^attp40) fly lines (n=100 flies per group). *p<0.05: **p<0.01, ***p<0.001.
We performed longevity assays to further characterize these fly models. Either of the Caz or Tbph-silenced flies manifested dramatic reductions of survival times when compared to control group, as indicated by Kaplan-Meier curves and median lifespan (FIG. 7F). […] This effect was particularly noticeable in iCaz and iTbph^attp40 fly lines (FIG. 7G).

[2] = tested on: control Drosophila strain UAS-Dicer2-+-Mef2-GAL4; assay: Climbing assay and lifespan of treated control flies; format: in vivo, Drosophila melanogaster; details: 30 μM
From the text: as §1
(§2) After knowing that FoxO inhibition provides benefits to muscle cells in vitro, we wanted to further test the effects of targeting FoxO factors on muscle function under the context of TDP-43 or FUS loss-of-function in vivo. To that purpose, we generated various Drosophilamodels with muscle-conditioned silencing of either Cabeza (Caz) or Tbph genes, which are orthologs of human FUS or TARDBP, respectively. […] Drosophila has only one ortholog for mammalian FoxO factors, which is called foxo. Although the affinity of AS1842856 for Drosophila foxo has never been tested, the fact that FoxO DNA-binding sites, with which the inhibitor interacts, are well conserved among species, including Drosophila melanogaster (FIG. 7B) provides enough rationale to test its efficacy in Drosophila models.

[3] = tested on: primary myoblasts from patients with ALS; assay: Myogenic capacity of primary myoblasts from patients with ALS; format: cell-based, human; details: 30 nM; primary myoblasts from sporadic and familial ALS patients
From the text: We looked at preliminary links between the findings in genetically-induced myoblasts and features of myoblasts from patients with ALS. To this aim, we cultured primary myoblasts obtained from muscle biopsies of two patients with ALS (patient 1 is sporadic [sALS] and patient 2 is familial [fALS]) and one control. […] Changes in TDP-43 localization were accompanied by an altered subcellular distribution of FoxO1, as reflected by increased levels of FoxO1 and FoxO3 in nuclei (FIG. 6A,C) and enhanced nuclear-to-cytosolic ratio in both patients (FIG. 6C). Remarkably, nuclear localizations of TDP-43 and FoxO1 were inversely associated in patient 2 (FIG. 6D).
To study whether these pathological features were linked to functional outcomes of ALS muscle, we studied the myogenic capacity of ALS myoblasts and the effect of FoxO inhibition.

[4] = tested on: TDP-43 or FUS-silenced human immortalized myoblasts (cell line 8220); assay: Myogenic differentiation (MYHC-positive myotubes, differentiation index) of silenced myoblasts; format: cell-based; details: 30 nM
From the text: We then studied the effect of gene silencing on the myogenic process. Myogenesis was first induced by an established protocol consisting on medium replacement, in which myoblasts were exposed to differentiation medium two days after infection with lentiviral particles. However, TDP-43 and FUS knockdown myoblasts were not able to survive to the differentiating challenge. Then, we switched to a more physiologically-relevant myogenic scenario that consists on allowing spontaneous differentiation and fusion when myoblasts reach 100% confluence. Lentiviral particles of scramble shRNA, shTDP-43 or shFUS were added to the medium when […] myoblasts were at 30-40% confluence (FIG. 1D).
(§3) Myoblasts treated with control shRNA differentiated and formed MYHC-positive myotubes 2 days after reaching 100% confluence (FIG. 1I). However, TDP-43 and FUS knockdown affected the natural capacity of cultured myoblasts to fuse and form myotubes: shTDP-43-treated myoblasts remained undifferentiated for at least 2 days after reaching 100% confluence, and shFUS-treated myoblasts formed fewer myotubes (FIG. 1I). […] We then analyzed levels of MYOD and MYOG (Myogenin), two transcription factors that are required for myoblast commitment, differentiation and fusion, respectively.
We next explored the consequences of pharmacological or genetic inhibition of FoxO on metabolism and myogenesis in TDP-43 and FUS-silenced myoblasts. We treated all the different models of myoblasts with the compound AS1842856 at 30 nM during proliferation and let them differentiate, adding the compound at the same concentration every 2 days for 8 days. At the selected concentration, this compound binds selectively to the dephosphorylated FoxO1, and to less extent dephosphorylated FoxO3, interfering with DNA interaction and thereby resulting in inhibition of FoxO transactivation.
(§4) In addition, treatment with the AS1842856 inhibitor modifies the expression of some of the FoxO-regulated genes that are crucial for proper myogenic differentiation.

[5] = tested on: shTDP-43-treated myoblasts; assay: Glu/Asp and Glu/Gln metabolite ratios by HPLC-MS and 1H-NMR in silenced myoblasts; format: cell-based, human; details: 30 nM
From the text: One of the key endogenous factors that keep glycolytic flux ongoing is cytosolic NAD^+. In anaerobic muscles, malate-aspartate and glycerol-phosphate shuttles as well as glutaminolysis are main metabolic pathways that recycle cytosolic NAD+to support glycolysis (FIG. 3A). […] With respect malate-aspartate shuttle and glutaminolysis, TDP-43 silencing led to reduced levels of OGC1 (oxoglutarate carrier 1), GOT1 (glutamic-oxaloacetic transaminase), MDH1 (malate dehydrogenase), and ME1 (malic enzyme), but increased levels of glutaminase (FIG. 3B). […] We have also analyzed intermediate metabolites of malate-aspartate shuttle and glutaminolysis, including glutamate (Glu), glutamine (Gln) and aspartate (Asp), by means of HPLC-MS and ^1H-NMR, and calculated the ratios Glu/Asp and Glu/Gln to estimate fluxes of these reactions. […] In this sense, an abnormal glutaminolysis may account for the defects of NAD^+ recycling in FUS-silenced myoblasts.
We next explored the consequences of pharmacological or genetic inhibition of FoxO on metabolism and myogenesis in TDP-43 and FUS-silenced myoblasts. We treated all the different models of myoblasts with the compound AS1842856 at 30 nM during proliferation and let them differentiate, adding the compound at the same concentration every 2 days for 8 days. […]

MYOD = MYOD expression in silenced myoblasts; format: cell-based, human; details: 30 nM; shTDP-43 and shFUS-treated myoblasts
From the text: as §3, §4

[6] = tested on: Drosophila flies with muscle-conditioned silencing of Caz or Tbph; assay: Climbing (locomotor activity) test in flies with muscle-conditioned silencing of Caz or Tbph; format: in vivo, Drosophila melanogaster; details: 30 μM; Caz- and Tbph-silenced flies; more pronounced in Tbph lines
From the text: as §1, §2

For `CCn1cc(C(=O)O)c(=O)c2c(N)c(F)c(NC3CCCCC3)cc21` [AS1842856], the “survival (Kaplan-Meier, median lifespan)” value [1] was “higher survival rates”, the toxicity on lifespan [2] was “lack of toxicity” and the “toxicity on motor function” value [2] was “lack of toxicity”. The myogenic abnormalities [3] was “alleviated”, the “myogenic capacity (MYHC-positive myotubes, differentiation index)” value ([4]; FUS-silenced myoblasts) was “improved the myogenic capacity” and the “myogenic capacity (MYHC-positive myotubes, differentiation index)” value ([4]; TDP-43 silenced myoblasts) was “rescued the myogenic arrest”. The “myogenic capacity (MYHC-positive myotubes, differentiation index)” value ([4]; control myoblasts) was “little effects”, the Glu/Asp ratio [5] was “increase Glu/Asp ratio to the levels of control myoblasts” and the Glu/Gln ratio [5] was “without affecting Glu/Gln ratio”. The “expression of MYOD” value (MYOD) was “increased the expression of MYOD” and the “muscle function (climbing activity)” value [6] was “strong benefits on muscle function”.
